# Test results: publication PMC12040169 (PLOS Biology, 2025)
# Test: in vitro
# Conditions: human, hela cells, % viability
row,SMILES,"viability at 28.5 h, 10 µM [%]"
1,O=C(Nc1ccc2oc(-c3cccnc3)nc2c1)c1cc([N+](=O)[O-])ccc1N1CCOCC1 [CBK268674],95
2,O=C(CCSc1ccccc1)Nc1ccc(S(=O)(=O)N2CCOCC2)cc1 [CBK266568],114
3,COc1cc(F)cc(OC2CCNCC2)c1NC(=O)C1(c2ccccc2)CCCCC1 [CBK050241T],107
4,COc1ccc2sc(C)[n+](CCC(=O)O)c2c1 [CBK260899B],83.5
5,CCC(CN1CCCC1)n1cncc1-c1cn(C)nc1C (centres unmarked) [CBK281459],102
6,CCn1c(=O)n(CC(=O)NCc2ccc(F)cc2)c2cccnc21 [CBK283901],87.8
7,CN(C)C(c1ccc2c(c1)OCO2)c1nnnn1C1CCCCC1 (centres unmarked) [CBK020620],103
8,O=C(NC(c1ccccc1)c1ccco1)C1CCN(C(=O)c2cccs2)CC1 (centres unmarked) [CBK059854],82.4
9,c1ccc2cc(-c3cn4ccnc4c(Nc4ccc(N5CCOCC5)cc4)n3)ccc2c1 [CBK066359],108
10,Cc1cc(C)c(OCCNC(C)(C)C)c(Cl)c1 [CBK262713C],93.2
11,COc1ccc(Nc2nc(-c3ccc(Cl)cc3)cn3ccnc23)cn1 [CBK066254],113
12,CCOC(=O)/C(C(=O)c1ccccc1)=C(/N)NCCO [CBK265621],110
13,O=C(Cc1cccnc1)N1CCC(Cc2ccccc2)CC1 [CBK200183],97
14,O=S(=O)(c1ccccc1)c1cn2ccnc2c(N2CCNCC2)n1 [CBK200021T],98.3
15,Cc1ccc(C(C)C)c(OCC(O)CNC(C)C)c1 (centres unmarked) [CBK026604C],111
16,CN1CCC(=NNC(=O)CSCc2ccccc2Br)CC1 [CBK026542],104
17,O=C(c1ccccc1)c1cn[nH]c1-c1ccccc1O [CBK287970],77.8
18,COc1ccc(OCCC(=O)O)cc1 [CBK057706],86.2
19,O=C(O)c1ccc(Oc2cccc([N+](=O)[O-])c2)cc1C(=O)O [CBK261179],110
20,Cc1cc(I)ccc1NC(=O)CN(c1ccccc1)S(=O)(=O)c1ccccc1[N+](=O)[O-] [CBK265954],78.6
21,O=C(O)CCSc1nccc(C(F)(F)F)n1 [CBK107864],87.5
22,COc1ccc(CSc2nc(O)cc(C(F)(F)F)n2)cc1 [CBK001217],85

row,SMILES,"viability at 28.5 h, 10 µM [%]"
1,O=C(NCC1CCCO1)c1ccc(NC(=O)C2CC=CCC2C(=O)O)cc1 (centres unmarked) [CBK266335],95
2,N#Cc1c(C(F)(F)F)cc(-c2ccccc2)nc1SCCC(=O)Nc1ccccc1O [CBK268191],103
3,CC(C)NC(=O)NC[C@H]1C[C@@H]2CC[N@]1C[C@@H]2CN1CCN(c2ncccn2)CC1 [CBK289116],89.7
4,COc1ccc(C(C)C)cc1-c1cncc(N[C@H](C)c2ccccc2)n1 [CBK065535],105
5,Cc1[nH]c(=O)c(C(=O)N(C)C(C)c2ccc(Cl)cc2)cc1-c1ccc(O)cc1 (centres unmarked) [CBK291225],98.8
6,CCCC/C=C/c1cnc(N)c(-c2ccc(O)cc2)n1 [CBK064068],95.3
7,CCOc1ccccc1NC(=O)c1cc2cccnc2n(Cc2ccc(Cl)cc2)c1=O [CBK294395],109
8,c1ccc(-c2nnc(-c3ccncc3)nc2-c2ccccc2)cc1 [CBK270061],81.1
9,COc1cccc(C2(NC(=O)CCn3nccc3C)CCCC2)c1 [CBK283601],101
10,Cn1ccnc1C1(O)CCN(C(=O)CCc2ccccc2)CC1 [CBK283542],92
11,COc1cc(NC(=S)P(=O)(c2ccccc2)c2ccccc2)c(OC)cc1Cl [CBK021976],95.6
12,O=C(CC(CN1CCN(Cc2ccccn2)CC1)C(=O)O)NCc1ccccc1 (centres unmarked) [CBK286865],81.2
13,O=C(Cc1ccccn1)N1CCCc2ccccc21 [CBK200343],105
14,O=S(=O)(NCc1ccc(F)cc1Cl)c1ccc(Cl)c(Cl)c1 [CBK043785],91
15,COc1ccc(OC)c(S(=O)(=O)N2CCN(c3ncccn3)CC2)c1 [CBK008662],92.7
16,Cc1n[nH]c(C)c1CNC(=O)c1cccc2c(C)c(C)[nH]c12 [CBK283068],88.9
17,CCNS(=O)(=O)c1ccc2c(c1)N(Cc1nc(-c3ccco3)no1)CC2 [CBK306184],81.1
18,Nc1ncc(-c2cccc3ccccc23)nc1NCc1ccccc1 [CBK063565],99
19,COc1ccccc1NC(=O)Cn1nc(-c2ccc(C)cc2)ccc1=O [CBK269974],93.1
20,COc1ccc(OC)c(-n2c(SCC(=O)N3CCC(C(=O)O)CC3)nc3ccccc3c2=O)c1 [CBK296981],87.5
21,Cc1ccc(C(=O)NCCCNc2ccc(Cl)cc2[N+](=O)[O-])cc1 [CBK262334],101
22,CS(=O)(=O)N1C[C@@H]2CCCCN(Cc3cccc(F)c3)[C@@H]2C1 [CBK285514],103

row,SMILES,"viability at 28.5 h, 10 µM [%]"
1,Cc1csc(C(C)NC(=O)c2cccnc2NCc2ccc3c(c2)OCO3)n1 (centres unmarked) [CBK153425],108
2,Sc1nnc(COc2ccc(-c3ccccc3)cc2)n1-c1ccccc1 [CBK264964],105
3,O=C(c1cccnc1)C1CCN(C(=O)c2cccs2)CC1 [CBK283528],102
4,O=C(Cn1ccccc1=O)Nc1ccc(OCC(F)(F)F)nc1 [CBK304556],88.9
5,Cc1nc(CCN2CCN(c3ccc4nccn4n3)CC2)cs1 [CBK306932],95.6
6,CC(CCCC(C)(C)O)Nc1cc(N2CCN(C)CC2)n2nccc2n1 (centres unmarked) [CBK037103],98.2
7,O=C(Nc1cccc(Cl)c1Cl)c1cnc2n(c1=O)CCS2 [CBK287380],95.1
8,CCOc1ccccc1Cn1c2ccccc2c2nc3ccccc3nc21 [CBK266323],101
9,CCc1c(S(=O)(=O)CCC(=O)OC)c2ccccc2[n+]([O-])c1C [CBK155469T],91.4
10,CCN1CCCCC1CNC(=O)c1cc(C2CC2)n[nH]1 (centres unmarked) [CBK282205],91.1
11,N#C/C(=C/c1ccc(Sc2nc3ccccc3[nH]2)o1)c1ccc(C(=O)O)cc1 [CBK269141],112
12,CN1C[C@@H](NC(=O)Nc2ccccc2)C[C@H]1c1nc(Cc2ccccc2)no1 [CBK288860],85.2
13,O=C(O)CCNS(=O)(=O)c1ccc2ccccc2c1 [CBK286920],98.6
14,CCc1nccn1CC(=O)NCC(C)n1nc(C)cc1C (centres unmarked) [CBK281638],80.4
15,CCOC(=O)NC(=O)c1cn(N2CCOCC2)c(=O)[nH]c1=O [CBK004845],104
16,CCc1nc2c(OCCC3CCCCC3)cccn2c1N(C)C(=O)CC(C)C [CBK147671],94.8
17,C[C@H](c1ccccc1)n1c(=O)[nH]c2ncc(-c3cccc4ncccc34)nc21 [CBK064173],89.6
18,COc1ccc(-n2cc(-c3cccc(C(F)(F)F)c3)nn2)cc1OC [CBK112933],94.9
19,CC(C(=O)NCCN1CCOCC1)N1c2cccc3cccc(c23)S1(=O)=O (centres unmarked) [CBK269911],91.2
20,Cc1nccn1CC1(O)CCN(CC2=CCC3CC2C3(C)C)CC1 (centres unmarked) [CBK284981],94.6

# Same assay, conditions: human, hela cells, % viability, bulk resorufin, single well
row,SMILES,"viability at 28.5 h, 10 µM [%]"
1,O=C1NC(=O)C(=CNCCc2c[nH]c3ccccc23)C(=O)N1 [CBK261635],93.2
